We go through one molecule from US7053194B2, “Compositions and methods for p53-mediated repression of gene expression” (Fox Chase Cancer Center, priority 1999, dated 2006).

Common to all, as to type: cell-based, human
One experiment concerns A2780 cells. Put plainly: Northern analysis of stathmin mRNA after adriamycin treatment. The conditions noted are these: A2780, adriamycin, 12 hours, data not shown. The method, then:
(§1) Sub-confluent cultures of MCF 7 and A2780 cells were treated with 100 nM trichostatin A (TSA, Sigma)for 2 hours, followed by incubation with 0.5 ug/ml adriamycin (doxorubicin, Sigma) for the indicated timepoints. Va15 cells grown at 39 degrees were treated with 100 nM TSA for two hours, followed by temperature shift to 32 degrees for 12 hours. p53 induction was monitored by western analysis of 100 ug protein as described (Murphy et al., Genes & Devel. 10:2971–2980, 1996), using 0.1ug/ml DO-1 (Ab-6, Calbiochem) or 421 (Ab-1, Calbiochem). MDM2 induction was monitored using the monoclonal antibody 2A10, kindly provided by Arnold Levine (Rockefeller University). For UV treatments, cells were irradiated with 4 J/m2 of UV-C with a Spectroline X series ultraviolet lamp, and output was monitored with a traceable UV light meter (Fisher Scientific). For ALLN treatment, MCF-7 cells were treated with 50 uM ALLN (calpain I inhibitor, Sigma) made in DMSO (dimethyl sulfoxide, Sigma) or with DMSO alone for 2 hours prior to harvesting.
(§2) Total RNA was isolated from cells using CsC1 purification (Murphy et al., Genes & Devel. 10:2971–2980, 1996) or using Trizol, as per the manufacturer (Gibco/BRL). Northern analyses were performed as described (Murphy et al., Genes & Devel. 10:2971–2980, 1996). Probes for Northerns were radio labeled using random primers (Prime-It-II, Stratagene) and α^32P dCTP (NEN). Autoradiographs were quantitated using NIH image software. The average values from three independent experiments were plotted onto bar graphs following normalization to GAPDH.
(§3) To extend these observations, the human tumor derived cell lines MCF7 (breast carcinoma)and A2780 (ovarian carcinoma) were analyzed following treatment with adriamycin to activate the endogenous, wild type p53 protein. Because of difficulties detecting human Map4 message, we analyzed the mRNA levels of stathmin (also called oncoprotein 18). We recently identified stathmin as a p53-repressed gene. A time course of treatment of MCF-7 cells with the DNA-damaging agent adriamycin (doxorubicin, DOX) results in approximately 30% reduction of stathmin RNA levels after 8 hours and 75% reduction after 24 hours. We chose to focus further on the 12 hour timepoint of adriamycin treatment, where 50% repression of stathmin was evident, in order to limit the toxicity sometimes associated with TSA (Yoshida et al., J Biol Chem 265:17174–17179, 1990). […] The results of three independent experiments indicate that the repression of stathmin expression evident after 12 hours of adriamycin treatment is completely abrogated by incubation with TSA. In contrast, neither the post-translational stabilization of p53 by adriamycin (DOX) nor the induction of the p53 response genes mdm2 and p21/waf1 were affected by TSA. […] We have performed identical experiments in A2780 cells (ovarian carcinoma, wt p53).

Another experiment deals with MCF-7 cells. The experiment is described as above. The conditions noted are these: MCF-7, adriamycin 0.5 ug/ml. The method, then: as §1, §2, §3
Another experiment has as its system MCF7 cells. The experiment is described as follows: Cyclin-dependent kinase assays. The conditions noted are these: MCF7 treated with doxorubicin. The method, then:
Cyclin-dependent kinase assays were performed essentially as described (Harper et al., 1993), using 250 ug of whole cell extract immunoprecipitated with 0.5 ug of polyclonal antisera to cdk2 (Santa Cruz Biotechnology), cyclin E and cyclin A. Following immunoprecipitation and washing, 1 ug of histone H1 (Sigma) was used as a substrate, in kinase reaction buffer (20 mM Tris pH 7.4/7.5 mM MgCl2/1 mM DTT), supplemented with 5 mM sodium fluoride, 1 mM sodium ortho-vanadate, and 125 ng/uL cAMP-dependent protein kinase inhibitor (Sigma). 0.5 uL of ^32P-ATP (NEN, 800 Ci/mmol) was added to each reaction, and 0.5 ug of normal rabbit IgG (Sigma) was used as a negative control. Following incubation at 37 degrees for 20 minutes, reactions were boiled in Laemmli sample buffer and loaded onto 10% SDS-PAGE. Cells for flow cytometry were fixed in ethanol and stained with propidium iodide as described (Murphy et al., Genes & Devel. 10:2971–2980, 1996) and analyzed on a Becton Dickinson FacScan. G1, S (synthesis) and G2/M populations were calculated using the program CellQuest.
This finding is consistent with flow cytometry data, which indicate that these cells are arrested in G2/M (not shown). As a negative control, normal rabbit IgG is used instead of polyclonal antisera for the immunoprecipitations and kinase assays (lanes 1 and 4).

As to `COc1cccc2c1C(=O)c1c(O)c3c(c(O)c1C2=O)C[C@@](O)(C(=O)CO)C[C@@H]3O[C@H]1C[C@H](N)[C@H](O)[C@H](C)O1` [adriamycin, doxorubicin], the “repression of stathmin expression” value with A2780 cells is recorded as “approximately 50%”. Also, the “reduction of stathmin RNA levels” value in the experiment on MCF-7 cells (8 hours) is listed as “approximately 30%”; in the experiment with MCF-7 cells (24 hours) it was about 75%. This molecule also registered a repression of stathmin in the experiment with MCF-7 cells (12 hours) of 50%. In the experiment on MCF7 cells, the “cdk2, cyclin A and cyclin E kinase activities” value is recorded as “all activities are low”. Moreover, the cell cycle arrest entry in the experiment with MCF7 cells was “arrest in G2/M phase”.
